Experiment [1] deals with T1, human STING (HAQ) (Homo sapiens, UniProt Q86WV6, G230A/H232R/R293Q). In words: biochemical. To be noted: for DSF huSTING (HAQ) ΔTm (° C.): 1 μM protein, compound at 100 μM. Format: binding.
Experiment [2] addresses T2, huSTING (WT) (Homo sapiens (Human), UniProt Q86WV6, H232R). In words: Differential scanning fluorimetry (DSF), huSTING (WT). Format: binding. The conditions noted are these: read-out: DSF huSTING (WT) ΔTm (° C.). Background: Differential scanning fluorimetry follows unfolding on heating by fluorescence.
Target sequence in this assay (Q86WV6 other isoform, or with tags, fused parts or gaps, stated change not applied): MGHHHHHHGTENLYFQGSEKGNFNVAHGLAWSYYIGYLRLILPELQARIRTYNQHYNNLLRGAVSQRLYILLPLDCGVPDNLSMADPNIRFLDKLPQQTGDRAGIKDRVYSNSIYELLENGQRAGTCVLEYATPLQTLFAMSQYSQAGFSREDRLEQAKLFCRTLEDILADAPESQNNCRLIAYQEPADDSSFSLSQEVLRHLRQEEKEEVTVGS
In another experiment the target is huSTING (HAQ) (Homo sapiens (Human), UniProt Q86WV6, G230A/H232R/R293Q/R71H). Briefly: THP-1 reporter cell line assay, THP-1 STING Lucia ISG cells. The experiment is classed as cell-based. The conditions noted are these: THP-1 STING Lucia ISG cells; 24 h; top concentration 50 μM; read-out: Cellular EC50 huSTING (HAQ).
Experiment [3] has as its target T2, huSTING (WT). In words: THP-1 reporter cell line assay, THP-1-Dual KI-hSTING-R232 cells. Format: cell-based. To be noted: read-out: Cellular EC50 huSTING (WT).
Target sequence in this assay (Q86WV6 whole entry H232R): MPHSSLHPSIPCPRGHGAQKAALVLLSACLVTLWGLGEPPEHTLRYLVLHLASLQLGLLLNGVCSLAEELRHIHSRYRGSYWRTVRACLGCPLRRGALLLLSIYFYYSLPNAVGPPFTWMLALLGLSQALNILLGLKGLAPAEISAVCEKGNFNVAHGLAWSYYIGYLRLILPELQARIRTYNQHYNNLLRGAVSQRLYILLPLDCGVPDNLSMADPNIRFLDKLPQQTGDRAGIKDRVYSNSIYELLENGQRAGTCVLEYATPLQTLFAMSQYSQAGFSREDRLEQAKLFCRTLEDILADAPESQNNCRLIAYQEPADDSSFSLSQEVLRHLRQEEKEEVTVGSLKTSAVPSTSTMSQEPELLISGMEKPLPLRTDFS
Experiment [4] deals with T1, human STING (HAQ). To be noted: read-out: SPR (HAQ) KD; 25° C.

A value given as a limit tells only on which side of the number the result lay.

Chain of huSTING (HAQ) (Q86WV6 whole entry R71H/G230A/H232R/R293Q): as the sequence (Q86WV6 whole entry H232R) above, with R71H, G230A, R293Q counted along it
T1 sequence (Q86WV6 whole entry G230A/H232R/R293Q, looked up): as the sequence (Q86WV6 whole entry H232R) above, with G230A, R293Q counted along it

On to `NC(=O)c1ccc(OCc2c(C(=O)O)sc3cccc(Cl)c23)cc1F` [Example 26, 3-((4-Carbamoyl-3-fluorophenoxy)methyl)-4-chlorobenzo[b]thiophene-2-carboxylic acid], for which the “DSF huSTING (HAQ) ΔTm (° C.)” value at human STING (HAQ) [1] amounted to 10.82 °C. In addition, the ΔTm (in general, the change in melting temperature against a reference sample) at 100 µM at huSTING (WT) [2] came out at 3.79 °C. Besides, the 50% effective concentration (EC50) on huSTING (HAQ) and at huSTING (WT) [3] was over 50 µM in each case. Further, the equilibrium dissociation constant (Kd) (as a rule, a measure of binding affinity in units of concentration) at human STING (HAQ) [4] came out at 1.6 µM.
Regarding `NC(=O)c1ccc(OCc2c(C(=O)O)sc3ccc(F)c(F)c23)cc1` [Example 16, 3-((4-Carbamoylphenoxy)methyl)-4,5-difluorobenzo[b]thiophene-2-carboxylic acid], the “DSF huSTING (HAQ) ΔTm (° C.)” value at human STING (HAQ) [1] turned out to be 10.12 °C. The ΔTm at 100 µM on huSTING (WT) [2] was found to be 3.49 °C. Further, the concentration for a half-maximal effect (EC50) at huSTING (HAQ) and on huSTING (WT) [3] was over 50 µM each time. For the same compound, the Kd on human STING (HAQ) [4] was 2.19 µM.
Regarding `NC(=O)c1ccc(OCc2c(C(=O)O)sc3cc(Cl)cc(F)c23)cc1` [Example 20, 3-((4-Carbamoylphenoxy)methyl)-6-chloro-4-fluorobenzo[b]thiophene-2-carboxylic acid], at human STING (HAQ) [1], the “DSF huSTING (HAQ) ΔTm (° C.)” value was found to be 5.83 °C. Besides, the thermal shift (ΔTm) at 100 µM at huSTING (WT) [2] was -2.76 °C. The EC50 on huSTING (HAQ) and at huSTING (WT) [3] was over 50 µM each time. At human STING (HAQ) [4], the Kd came to 34 µM.
As for `NC(=O)c1ccc(CCc2c(C(=O)O)sc3cccc(F)c23)cc1` [Example 88, 3-(4-Carbamoylphenethyl)-4-fluorobenzo[b]thiophene-2-carboxylic acid], at human STING (HAQ) [1], the “DSF huSTING (HAQ) ΔTm (° C.)” value turned out to be 0.97 °C. In addition, the ΔTm at 100 µM on huSTING (WT) [2] was -1.07 °C. Further, the EC50 at huSTING (HAQ) and on huSTING (WT) [3] was over 50 µM throughout. For the same compound, on human STING (HAQ) [4], the Kd came out at 533 µM.
Consider `NC(=O)c1ccc(OCc2c(C(=O)O)sc3cccnc23)cc1` [Example 24, 3-((4-Carbamoylphenoxy)methyl)thieno[3,2-b]pyridine-2-carboxylic acid], for which the results for the ΔTm at 100 µM on human STING (HAQ) [1] (read-out: DSF huSTING (HAQ) ΔTm (° C.)) and on huSTING (WT) [2] were 0.6 °C and -0.35 °C, respectively. Also, the EC50 at huSTING (HAQ) and at huSTING (WT) [3] was over 50 µM in each case. The Kd on human STING (HAQ) [4] is over 10000 µM.
As to `NC(=O)c1ccc(OCc2c(C(=O)O)sc3cccc(Cl)c23)cc1Br` [Example 64, 3-((3-Bromo-4-carbamoylphenoxy)methyl)-4-chlorobenzo[b]thiophene-2-carboxylic acid], the “DSF huSTING (HAQ) ΔTm (° C.)” value on human STING (HAQ) [1] was 6.79 °C. Moreover, the thermal shift (ΔTm) at 100 µM at huSTING (WT) [2] was 2.73 °C. The half-maximal effective concentration (EC50) at huSTING (HAQ) and at huSTING (WT) [3] was over 50 µM throughout. In addition, at human STING (HAQ) [4], the dissociation constant Kd was 6.2 µM.
Regarding `NC(=O)c1ccc(OCc2c(C(=O)O)sc3c(Cl)cccc23)cc1` [Example 12, 3-((4-Carbamoylphenoxy)methyl)-7-chlorobenzo[b]thiophene-2-carboxylic acid], the “DSF huSTING (HAQ) ΔTm (° C.)” value on human STING (HAQ) [1] came to 9 °C. Also, the ΔTm at 100 µM on huSTING (WT) [2] stood at 3.29 °C. Moreover, the 50% effective concentration (EC50) at huSTING (HAQ) and at huSTING (WT) [3] was over 50 µM each time. The Kd at human STING (HAQ) [4] amounted to 5.95 µM.
As for `NC(=O)c1c(F)cc(OCc2c(C(=O)O)sc3cccc(Cl)c23)cc1F` [Example 28, 3-((4-Carbamoyl-3,5-difluorophenoxy)methyl)-4-chlorobenzo[b]thiophene-2-carboxylic acid], at human STING (HAQ) [1], the “DSF huSTING (HAQ) ΔTm (° C.)” value came out at 6.93 °C. The ΔTm at 100 µM on huSTING (WT) [2] was found to be 1.19 °C. The EC50 on huSTING (HAQ) and on huSTING (WT) [3] was over 50 µM in each case. In addition, the Kd at human STING (HAQ) [4] amounted to 10.9 µM.
For `NC(=O)c1ccc(OCc2c(C(=O)O)sc3cccc(F)c23)cc1` [Example 1, 3-((4-Carbamoylphenoxy)methyl)-4-fluorobenzo[b]thiophene-2-carboxylic acid], at human STING (HAQ) [1], the “DSF huSTING (HAQ) ΔTm (° C.)” value came to 7.78 °C. The ΔTm at 100 µM on huSTING (WT) [2] came to 0.99 °C. In addition, the concentration giving a half-maximal response (EC50) on huSTING (HAQ) and on huSTING (WT) [3] was over 50 µM each time. In addition, the dissociation constant (Kd) on human STING (HAQ) [4] is 32 µM.
On to `NC(=O)c1ccc(OCc2c(C(=O)O)sc3cccc(C(F)(F)F)c23)cc1` [Example 36, 3-((4-Carbamoylphenoxy)methyl)-4-(trifluoromethyl)benzo[b]thiophene-2-carboxylic acid], for which, on human STING (HAQ) [1], the “DSF huSTING (HAQ) ΔTm (° C.)” value is 12.31 °C. For the same compound, the ΔTm at 100 µM at huSTING (WT) [2] stood at 5.96 °C. The EC50 on huSTING (HAQ) and at huSTING (WT) [3] was over 50 µM in each case. The Kd on human STING (HAQ) [4] is 1.33 µM.
Consider `NC(=O)c1cc(F)c(OCc2c(C(=O)O)sc3cccc(F)c23)c(F)c1` [Example 57, 3-((4-Carbamoyl-2,6-difluorophenoxy)methyl)-4-fluorobenzo[b]thiophene-2-carboxylic acid], for which the “DSF huSTING (HAQ) ΔTm (° C.)” value on human STING (HAQ) [1] is 10.74 °C. Further, at huSTING (WT) [2], the ΔTm at 100 µM came out at 3.43 °C. The EC50 at huSTING (HAQ) and on huSTING (WT) [3] was over 50 µM in each case. Besides, the dissociation constant (Kd) on human STING (HAQ) [4] is 9.05 µM.
Consider `NC(=O)c1ccc(OCc2c(C(=O)O)sc3cccc(Cl)c23)c(Cl)c1` [Example 38, 3-((4-Carbamoyl-2-chlorophenoxy)methyl)-4-chlorobenzo[b]thiophene-2-carboxylic acid], for which the “DSF huSTING (HAQ) ΔTm (° C.)” value on human STING (HAQ) [1] stood at 6.02 °C. Also, the shift in melting temperature (ΔTm) at 100 µM at huSTING (WT) [2] is -1.4 °C. In addition, the half-maximal effective concentration (EC50) on huSTING (HAQ) and on huSTING (WT) [3] was over 50 µM each time. The dissociation constant (Kd) on human STING (HAQ) [4] came to 16.4 µM.
On to `NC(=O)c1ccc(OCc2c(C(=O)O)sc3cccc(F)c23)cc1Cl` [Example 50, 3-((4-Carbamoyl-3-chlorophenoxy)methyl)-4-fluorobenzo[b]thiophene-2-carboxylic acid], for which the “DSF huSTING (HAQ) ΔTm (° C.)” value at human STING (HAQ) [1] is 5.11 °C. Further, the ΔTm at 100 µM at huSTING (WT) [2] stood at 0.02 °C. The half-maximal effective concentration (EC50) on huSTING (HAQ) and on huSTING (WT) [3] was over 50 µM throughout. Also, on human STING (HAQ) [4], the Kd turned out to be 20.9 µM.
As to `NC(=O)c1cc(Cl)c(OCc2c(C(=O)O)sc3cccc(Cl)c23)c(Cl)c1` [Example 40, 3-((4-Carbamoyl-2,6-dichlorophenoxy)methyl)-4-chlorobenzo[b]thiophene-2-carboxylic acid], the “DSF huSTING (HAQ) ΔTm (° C.)” value at human STING (HAQ) [1] stood at 9.91 °C. In addition, the ΔTm at 100 µM at huSTING (WT) [2] is 3.66 °C. Further, the EC50 (in general, the midpoint of the concentration-response curve) is over 50 µM at huSTING (HAQ) and 39.7 µM at huSTING (WT) [3]. Further, the Kd on human STING (HAQ) [4] amounted to 2.8 µM.
`Cc1ccc2sc(C(=O)O)c(COc3ccc(C(N)=O)cc3)c2c1Cl` [Example 18, 3-((4-Carbamoylphenoxy)methyl)-4-chloro-5-methylbenzo[b]thiophene-2-carboxylic acid]: the “DSF huSTING (HAQ) ΔTm (° C.)” value on human STING (HAQ) [1] is 6.29 °C. For the same compound, the shift in melting temperature (ΔTm) at 100 µM on huSTING (WT) [2] is -0.6 °C. For the same compound, the EC50 at huSTING (HAQ) and at huSTING (WT) [3] was over 50 µM in each case. For the same compound, the Kd at human STING (HAQ) [4] is 15.9 µM.
As to `NC(=O)c1ccc(OCc2c(C(=O)O)sc3cccc(F)c23)cc1C(F)(F)F` [Example 52, 3-((4-Carbamoyl-3-(trifluoromethyl)phenoxy)methyl)-4-fluorobenzo[b]thiophene-2-carboxylic acid], the “DSF huSTING (HAQ) ΔTm (° C.)” value on human STING (HAQ) [1] is −1.22 °C. The ΔTm at 100 µM at huSTING (WT) [2] was -2.15 °C. Moreover, the EC50 on huSTING (HAQ) and on huSTING (WT) [3] was over 50 µM throughout. Further, the equilibrium dissociation constant (Kd) at human STING (HAQ) [4] stood at 260 µM.

For the origin of these results see patent US11613525B2 (CTXT PTY LIMITED, priority 2018, dated 2023).
